How the values were obtained:
EGFR wild type (EGFR WT) = EGFR wild type (EGFR WT) (Homo sapiens (Human), UniProt P00533); assay: Cellular phosphorylation assay, EGF-stimulated EGFR phosphorylation in engineered NIH 3T3 cells, Phospho-EGFR DuoSet IC ELISA, Assay 5; assay type: cell-based
Protocol: NIH 3T3 cells were engineered to express EGFR wild type (EGFR WT; Assay 5, no footnote) with constructs obtained from GenScript and grown in DMEM supplemented with 10% fetal bovine serum and 15 μg/ml blasticidin. Cells were plated in 96-well plates at 20,000 cells/well and allowed to attach overnight at 37° C./5% CO2. Serially diluted compounds were added to the plates for 1 hour at 37° C./5% CO2. EGFR WT cells were stimulated with 100 ng/ml rEGF for an additional 10 minutes at 37° C./5% CO2. After compound incubation, medium was removed from the cells, which were then lysed in 100 μL/well lysis buffer according to the manufacturer's protocol (R&D Systems, DYC1095, Human Phospho-EGFR DuoSet IC ELISA). Same protocol was followed to determine the total levels of phospho-EGFR by measuring the optical density of each well using a VersaMax microplate reader. Curves were then generated and IC50 values calculated.

EGFR = EGFR (Homo sapiens (Human), UniProt P00533); assay: ErbB enzyme assay (CisBio HTRF KinEASE-TK), Assay 3; assay type: biochemical
Protocol: (§1) Compound potencies were determined using CisBio's HTRF Kinease-TK assay technology. The kinases were incubated with 250 nM TK-substrate biotin (CisBio, part of cat #62TK0PEC) at 1 mM ATP along with test compounds in a buffer consisting of 25 mM HEPES, pH 7.4, 10 mM MgCl2, 0.01% Triton X-100, and 2% DMSO in a volume of 8 μL. Compounds were prepared as a three-fold serial dilution in DMSO and added to the assay to give the appropriate final concentration. After 30-minute incubation at 22° C., the reaction was quenched by adding 8 μL of quench solution containing 62.5 nM Sa-XL665 and 0.25× TK-Ab-Cryptate in HTRF detection buffer (all from CisBio, part of cat #62TK0PEC). After a 1-hour incubation at 22° C., the extent of reaction was determined using a PerkinElmer EnVision multimode plate reader via HTRF dual wavelength detection, and the percent of control (POC) was calculated using a ratiometric emission factor. One hundred POC was determined using DMSO only samples (no compound present), and 0 POC was determined using pre-quenched control reactions. A 4-parameter logistic curve was fit to the POC values as a function of the concentration of compound, and the IC50 value was the point where the best-fit curve crossed 50 POC.
(§2) Enzyme lots and concentration used are in Table 2.

[1] = target: ErbB2 insYVMA (HER2-YVMA, SEQ ID NO: 2) (Homo sapiens, UniProt P04626, INS775YVMA/P1170A); assay: biochemical; details: ErbB2 insYVMA enzyme assay; read-out: Assay 1 IC50
ErbB2 WT = ErbB2 WT (Homo sapiens (Human), UniProt P04626); assay: ErbB enzyme assay (CisBio HTRF KinEASE-TK), Assay 2; assay type: biochemical
Protocol: as §1, with “Compounds were prepared as a three-fold serial dilution in DMSO and added to the assay to give the appropriate final concentration.” left out, “reactions.” for “reactions. A 4-parameter logistic curve was fit to the POC values as a function of the concentration of compound, and the IC50 value was the point where the best-fit curve crossed 50 POC.”
as §2

[2] = target: ErbB2 with Exon 20 YVMA insertion (HER2-YVMA) (Homo sapiens (Human), UniProt P04626, INS775YVMA); assay: Cellular phosphorylation assay, constitutive ErbB2 phosphorylation (Y1196) in engineered NIH 3T3 cells, Assay 4; assay type: cell-based
Protocol: Serially diluted compounds were added to the plates for 1 hour at 37° C./5% CO2. EGFR WT cells were stimulated with 100 ng/ml rEGF for an additional 10 minutes at 37° C./5% CO2. After compound incubation, medium was removed from the cells, which were then fixed in 3.7% formaldehyde in PBS at room temperature for 20 minutes. Following a wash with PBS, cells were permeabilized with 100% methanol at room temperature for 10 minutes. Cells were then washed with PBS/0.05% Tween-20 and blocked with Odyssey blocking buffer (LI-COR Biosciences) for at least 1 hour at room temperature. Antibodies to phosphorylated ErbB2 (Y1196, Cell Signaling #6942) or phosphorylated EGFR (Y1068, Cell Signaling #3777) and GAPDH (Millipore #MAB374) were added to the cells in blocking buffer containing 0.05% azide and incubated overnight at 4° C. After washing with PBS/0.05° i° Tween-20, the cells were incubated with fluorescently labeled secondary anti-rabbit antibody (LiCOR, IRDye 800CW #926-32211) and anti-mouse antibody (Molecular Probes, Alexa Fluor 680 #A21058) for 1 hour at room temperature in the dark. Cells were then washed and analyzed for fluorescence at both wavelengths using the Odyssey Infrared Imaging System (LI-COR Biosciences). Phosphorylated ErbB2 and EGFR signal was normalized to GAPDH signal to generate curves and calculate IC50 values.

ErbB2 with Exon 20 YVMA insertion (HER2-YVMA), sequence (P04626 other isoform, or with tags, fused parts or gaps ins YVMA behind 775): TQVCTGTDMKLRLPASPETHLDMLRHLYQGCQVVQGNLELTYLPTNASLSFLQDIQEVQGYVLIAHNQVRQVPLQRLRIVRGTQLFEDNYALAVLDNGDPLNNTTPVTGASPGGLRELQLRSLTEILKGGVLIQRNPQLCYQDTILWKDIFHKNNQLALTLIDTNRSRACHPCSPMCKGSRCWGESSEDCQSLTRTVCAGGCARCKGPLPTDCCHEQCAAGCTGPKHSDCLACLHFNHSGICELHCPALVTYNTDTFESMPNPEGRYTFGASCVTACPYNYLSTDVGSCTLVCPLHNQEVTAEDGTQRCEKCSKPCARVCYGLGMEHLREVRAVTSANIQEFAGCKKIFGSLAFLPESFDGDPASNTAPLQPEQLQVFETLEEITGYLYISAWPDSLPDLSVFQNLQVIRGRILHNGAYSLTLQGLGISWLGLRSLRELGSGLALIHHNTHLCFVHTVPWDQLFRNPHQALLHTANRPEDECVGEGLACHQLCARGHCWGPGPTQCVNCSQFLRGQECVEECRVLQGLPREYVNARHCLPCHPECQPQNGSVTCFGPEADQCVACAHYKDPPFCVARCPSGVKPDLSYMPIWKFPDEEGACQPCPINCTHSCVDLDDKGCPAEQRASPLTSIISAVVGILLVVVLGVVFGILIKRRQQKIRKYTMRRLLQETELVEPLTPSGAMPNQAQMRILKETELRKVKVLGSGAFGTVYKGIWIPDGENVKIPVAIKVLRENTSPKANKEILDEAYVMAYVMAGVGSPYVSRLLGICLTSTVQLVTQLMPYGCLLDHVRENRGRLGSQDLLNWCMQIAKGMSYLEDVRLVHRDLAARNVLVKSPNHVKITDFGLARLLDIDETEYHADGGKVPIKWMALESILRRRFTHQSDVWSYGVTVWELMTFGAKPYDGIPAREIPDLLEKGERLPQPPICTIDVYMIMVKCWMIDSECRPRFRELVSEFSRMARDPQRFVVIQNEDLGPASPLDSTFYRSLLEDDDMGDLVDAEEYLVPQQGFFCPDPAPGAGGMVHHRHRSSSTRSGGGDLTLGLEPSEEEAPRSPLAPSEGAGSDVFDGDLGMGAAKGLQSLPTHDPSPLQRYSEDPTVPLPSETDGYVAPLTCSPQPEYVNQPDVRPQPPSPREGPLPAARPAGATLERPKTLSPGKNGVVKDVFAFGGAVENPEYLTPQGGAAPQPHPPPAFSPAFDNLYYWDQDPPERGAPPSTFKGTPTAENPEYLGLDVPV
EGFR wild type (EGFR WT), sequence (P00533 25-1210): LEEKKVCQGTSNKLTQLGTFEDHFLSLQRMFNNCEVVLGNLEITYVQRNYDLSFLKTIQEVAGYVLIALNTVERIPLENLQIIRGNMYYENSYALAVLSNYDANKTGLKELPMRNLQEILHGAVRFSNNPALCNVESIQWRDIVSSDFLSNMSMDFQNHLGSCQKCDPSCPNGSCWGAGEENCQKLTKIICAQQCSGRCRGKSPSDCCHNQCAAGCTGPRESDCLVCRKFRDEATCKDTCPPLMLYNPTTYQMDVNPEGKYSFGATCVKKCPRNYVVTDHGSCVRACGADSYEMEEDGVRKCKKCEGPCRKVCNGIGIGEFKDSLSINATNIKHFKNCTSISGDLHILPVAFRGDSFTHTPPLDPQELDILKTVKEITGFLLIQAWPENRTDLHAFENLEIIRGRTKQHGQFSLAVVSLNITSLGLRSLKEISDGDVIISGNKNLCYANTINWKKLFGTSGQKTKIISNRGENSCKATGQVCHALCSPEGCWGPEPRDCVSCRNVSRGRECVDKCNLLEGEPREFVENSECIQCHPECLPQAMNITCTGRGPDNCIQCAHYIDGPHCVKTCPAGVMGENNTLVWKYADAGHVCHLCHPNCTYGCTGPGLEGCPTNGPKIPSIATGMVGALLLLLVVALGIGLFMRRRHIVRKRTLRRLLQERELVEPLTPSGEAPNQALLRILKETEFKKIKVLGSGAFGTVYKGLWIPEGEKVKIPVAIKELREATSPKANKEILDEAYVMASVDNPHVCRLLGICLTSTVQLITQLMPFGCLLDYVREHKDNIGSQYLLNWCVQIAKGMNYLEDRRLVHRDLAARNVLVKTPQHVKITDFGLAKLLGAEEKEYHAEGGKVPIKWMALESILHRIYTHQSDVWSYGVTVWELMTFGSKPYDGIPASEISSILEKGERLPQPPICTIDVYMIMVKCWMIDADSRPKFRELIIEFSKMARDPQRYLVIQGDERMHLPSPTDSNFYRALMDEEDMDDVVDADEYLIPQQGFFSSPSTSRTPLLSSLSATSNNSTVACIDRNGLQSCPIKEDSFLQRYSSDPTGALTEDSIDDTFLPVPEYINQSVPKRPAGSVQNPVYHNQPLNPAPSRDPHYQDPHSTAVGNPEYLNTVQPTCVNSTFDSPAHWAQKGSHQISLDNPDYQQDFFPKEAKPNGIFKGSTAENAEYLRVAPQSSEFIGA
EGFR, sequence (P00533 25-1210): as above
ErbB2 WT, sequence (P04626 23-1255): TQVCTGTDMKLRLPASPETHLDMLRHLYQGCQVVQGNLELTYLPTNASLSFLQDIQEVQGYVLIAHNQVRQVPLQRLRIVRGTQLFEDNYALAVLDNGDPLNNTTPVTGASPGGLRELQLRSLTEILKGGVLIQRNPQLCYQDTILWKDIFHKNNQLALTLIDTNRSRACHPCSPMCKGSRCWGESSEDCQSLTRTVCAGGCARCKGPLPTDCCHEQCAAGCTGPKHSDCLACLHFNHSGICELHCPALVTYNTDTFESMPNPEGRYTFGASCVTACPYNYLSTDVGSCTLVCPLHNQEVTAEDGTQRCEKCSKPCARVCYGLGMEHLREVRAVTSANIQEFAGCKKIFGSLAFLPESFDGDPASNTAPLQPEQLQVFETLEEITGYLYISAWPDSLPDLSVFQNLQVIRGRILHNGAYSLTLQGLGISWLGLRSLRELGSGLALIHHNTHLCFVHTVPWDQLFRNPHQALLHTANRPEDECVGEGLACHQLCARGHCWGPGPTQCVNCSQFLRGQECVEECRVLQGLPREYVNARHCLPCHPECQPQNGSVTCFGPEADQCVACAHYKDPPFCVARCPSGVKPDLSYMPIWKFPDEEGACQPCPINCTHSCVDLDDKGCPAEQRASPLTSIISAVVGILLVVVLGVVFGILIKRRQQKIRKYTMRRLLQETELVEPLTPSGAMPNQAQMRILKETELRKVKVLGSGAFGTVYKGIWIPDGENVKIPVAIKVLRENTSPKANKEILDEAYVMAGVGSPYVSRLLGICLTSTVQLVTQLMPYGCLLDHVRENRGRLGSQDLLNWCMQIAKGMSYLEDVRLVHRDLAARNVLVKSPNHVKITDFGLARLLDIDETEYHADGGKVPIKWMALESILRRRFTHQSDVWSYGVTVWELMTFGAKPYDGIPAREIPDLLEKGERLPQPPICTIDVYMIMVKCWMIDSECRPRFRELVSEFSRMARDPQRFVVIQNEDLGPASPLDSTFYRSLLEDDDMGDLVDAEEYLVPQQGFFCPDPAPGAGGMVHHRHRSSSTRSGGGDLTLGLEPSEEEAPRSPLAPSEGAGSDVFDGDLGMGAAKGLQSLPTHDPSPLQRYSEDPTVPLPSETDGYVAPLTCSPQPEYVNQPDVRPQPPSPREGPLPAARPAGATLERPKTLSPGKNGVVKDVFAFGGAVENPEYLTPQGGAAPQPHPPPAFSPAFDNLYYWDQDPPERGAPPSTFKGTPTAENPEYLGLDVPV

## Cc1cc(Nc2ncnc3cnc(N4CCC[C@](C)(O)C4)nc23)ccc1Oc1ccc2c(c1)ncn2C [Example 461]
EGFR wild type (EGFR WT)
  IC50: ≥ 5000 nM
EGFR
  IC50: ≥ 10000 nM
[1]
  IC50: 20.5 nM
ErbB2 WT
  IC50: 31.9 nM
[2]
  IC50: 46.5 nM

## Cc1cc(Nc2ncnc3cnc(NC4=NC(C)(C)CO4)nc23)ccc1Oc1ccn2ncnc2c1 [Example 362]
EGFR wild type (EGFR WT)
  IC50: ≥ 5000 nM
EGFR
  IC50: 3390 nM
[1]
  IC50: 26.3 nM
ErbB2 WT
  IC50: 32.1 nM
[2]
  IC50: 1260 nM

## Clc1cc(Nc2ncnc3cnc(N4C[C@@H]5C[C@H]4CO5)nc23)ccc1Oc1ccn2ncnc2c1 [Example 426]
EGFR wild type (EGFR WT)
  IC50: ≥ 5000 nM
EGFR
  IC50: 4210 nM
[1]
  IC50: 16.2 nM
ErbB2 WT
  IC50: 16.2 nM
[2]
  IC50: 112 nM

## Cc1cc(Nc2ncnc3cnc(N(C)[C@H]4CN(C)C[C@H]4F)nc23)ccc1Oc1ccc2c(c1)ncn2C [Example 99, N2-((3S,4R)-4-fluoro-1-methylpyrrolidin-3-yl)-N2-methyl-N8-(3-methyl-4-((1-methyl-1H-benzo[d]imidazol-5-yl)oxy)phenyl)pyrimido[5,4-d]pyrimidine-2,8-diamine]
EGFR wild type (EGFR WT)
  IC50: ≥ 5000 nM
EGFR
  IC50: 6470 nM
[1]
  IC50: 17.1 nM
ErbB2 WT
  IC50: 18 nM
[2]
  IC50: 44.5 nM

## Cc1cc(Nc2ncnc3cnc(N4CC[C@H]4C(F)F)nc23)ccc1Oc1ccn2ncnc2c1 [Example 390]
EGFR wild type (EGFR WT)
  IC50: ≥ 5000 nM
EGFR
  IC50: 3980 nM
[1]
  IC50: 24.8 nM
ErbB2 WT
  IC50: 44.6 nM
[2]
  IC50: 108 nM

## O[C@@H]1C[C@H]2C[C@@H]1CN2c1ncc2ncnc(Nc3ccc(Oc4ccn5ncnc5c4)c(Cl)c3)c2n1 [Example 332]
EGFR wild type (EGFR WT)
  IC50: ≥ 5000 nM
EGFR
  IC50: ≥ 10000 nM
[1]
  IC50: 48.6 nM
ErbB2 WT
  IC50: 50.5 nM
[2]
  IC50: 186 nM

## Cc1cc(Nc2ncnc3cnc(N(C)C[C@H]4COCCO4)nc23)ccc1Oc1ccc2c(c1)ncn2C [Example 413]
EGFR wild type (EGFR WT)
  IC50: ≥ 5000 nM
EGFR
  IC50: ≥ 10000 nM
[1]
  IC50: 49.7 nM
ErbB2 WT
  IC50: 102 nM
[2]
  IC50: 30.8 nM

## Clc1cc(Nc2ncnc3cnc(N4CCC4)nc23)ccc1Oc1ccn2ncnc2c1 [Example 112, N-(4-([1,2,4]triazolo[1,5-a]pyridin-7-yloxy)-3-chlorophenyl)-6-(azetidin-1-yl)pyrimido[5,4-d]pyrimidin-4-amine]
EGFR wild type (EGFR WT)
  IC50: ≥ 5000 nM
EGFR
  IC50: ≥ 10000 nM
[1]
  IC50: 18.7 nM
ErbB2 WT
  IC50: 44.1 nM
[2]
  IC50: 190 nM

## Cc1cc(Nc2ncnc3cnc(N4CC5(C4)CC(O)(C(F)(F)F)C5)nc23)ccc1Oc1ccc2c(c1)ncn2C [Example 487]
EGFR wild type (EGFR WT)
  IC50: ≥ 5000 nM
EGFR
  IC50: ≥ 10000 nM
[1]
  IC50: 62.1 nM
ErbB2 WT
  IC50: 45.7 nM
[2]
  IC50: 49.1 nM

## Cc1cc(Nc2ncnc3cnc(O[C@H]4CNCC[C@H]4F)nc23)ccc1Oc1ccc2c(c1)ncn2C [Example 290]
EGFR wild type (EGFR WT)
  IC50: ≥ 5000 nM
EGFR
  IC50: ≥ 10000 nM
[1]
  IC50: 92.5 nM
ErbB2 WT
  IC50: 601 nM
[2]
  IC50: 83.5 nM

## Cc1cc(Nc2ncnc3cnc(NC4CC4)nc23)ccc1Oc1ccc2c(c1)ncn2C [Example 270]
EGFR wild type (EGFR WT)
  IC50: ≥ 5000 nM
EGFR
  IC50: ≥ 10000 nM
[1]
  IC50: 10.9 nM
ErbB2 WT
  IC50: 22.2 nM
[2]
  IC50: 3.1 nM

## CC1(C)CN(c2ncc3ncnc(Nc4ccc(Oc5ccn6ncnc6c5)c(Cl)c4)c3n2)CCO1 [Example 330]
EGFR wild type (EGFR WT)
  IC50: ≥ 5000 nM
EGFR
  IC50: 8510 nM
[1]
  IC50: 34.3 nM
ErbB2 WT
  IC50: 72.6 nM
[2]
  IC50: 197 nM

## Cc1cc(Nc2ncnc3cnc(N4CCN5C(=O)COC[C@H]5C4)nc23)ccc1Oc1ccc2c(c1)ncn2C [Example 346]
EGFR wild type (EGFR WT)
  IC50: ≥ 5000 nM
EGFR
  IC50: ≥ 10000 nM
[1]
  IC50: 39.5 nM
ErbB2 WT
  IC50: 60.4 nM
[2]
  IC50: 20.3 nM
